Test results reported in US5391800A, “Method for inhibition of cell motility by sphingosine-1-phosphate, its derivatives and mimetics and method of synthesizing sphingosine-1-phosphate and its derivatives” (The Biomembrane Institute, priority 1993, dated 1995).
Entries after “also recorded” stand apart in the source; their conditions may differ.

Tests used:
B16/F1 cells [1] = experiment: Phagokinetic activity of B16/F1 cells on gold sol-coated plates; type: cell-based, mouse; details: FIGS. 11A-F, SPN-1-P at 1.0 or 0.1 μM
Method: Phagokinetic activity is measured by the ability of cells to ingest foreign particles while moving. Cell motility can be estimated as the area of a phagokinetic track on gold sol particle-coated plates as previously described {Albrecht-Buehler, Cell, 11:395 (1977)}. A uniform coating of gold particles is prepared on glass coverslips precoated with bovine serum albumin, and coverslips are rinsed repeatedly to remove non-adhering or loosely-adhering gold particles. Freshly-prepared neutrophils or tumor cells detached from culture are placed in a Petri dish containing the gold sol-coated plate, and incubated for about 2 hours (for human neutrophils) or about 18 hours (for tumor cells). The coverslips are fixed for 1 hour in a 4% formaldehyde solution in phosphate-buffered saline (PBS) and mounted on microscope slides. The phagokinetic tracks are observed on a television connected to a light microscope (Nikon, Tokyo, Japan). Tracks on the television are transferred to translucent sheets, which are then photocopied. Phagokinetic activity is quantitated by cutting and weighing the swept area in the copy.
Cell motility was estimated as the area of phagokinetic track on gold sol particle-coated plates as previously described {Albrecht-Buehler, Cell, 11:395 (1977)}. […] Phagokinetic activity was quantitated by cutting and weighing the swept area in the copy. […]

[2] = Toxicity to B16/F1 melanoma cells, trypan blue exclusion; type: cell-based, mouse; details: mouse, b16/f1 cells; B16/F1; 50 μM; 1 hour incubation; control 99; read-out: Cell viability (%)
Method: (§1) Effects of SPN derivatives on protein kinase C activity and cell growth of B16/F1 cells was also investigated. […] Toxicity of these compounds to B16/F1 cells and human neutrophils was also examined using a trypan blue exclusion assay after 1 hour incubation with the compounds.

B16/F1 melanoma cells = experiment: as above; type: cell-based, mouse; details: for Toxicity: 45-50 μM, B16/F1 cells, 1 hour
Method: as §1

B16/F1 cells [3] = experiment: Uptake and metabolic conversion of 3H-SPN and 14C-TMS in B16/F1 cells; type: in vitro ADME, mouse; details: for Incorporation into B16/F1 cells: 3H-labeled SPN, 14C-labeled TMS; for Metabolic conversion: B16/F1 cells
Text: FIGS. 12A and 12B depict the time-course uptake of ^3 H-SPN (FIG. 12A) and ^14 C-TMS (FIG. 12B) by B16/F1 cells. The ordinate represents % radioactivity taken up by B16/F1 cells and the abscissa represents time in hours.
FIGS. 13A-13C depict the time-course changes in labeling of various SPN derivatives after addition of ^3 H-SPN to B16/F1 cells:
FIG. 13A: thin-layer chromatography (TLC) of lipids separated from Folch's lower phase;
FIG. 13B: TLC of lipids separated from Folch's upper phase followed by incubation with ^14 C-TMS and extraction;
FIG. 13C: TLC of lipids separated from Folch's upper phase.
Lane 1, 0 minute. Lane 2, 10 minutes. Lane 3, 30 minutes. Lane 4, 1 hour. Lane 5, 2 hours. Lane 6, 4 hours. Lane 7, 20 hours. CER represents ceramide; CMH represents ceramide monohexoside; PE represents phosphatidyl-ethanolamine; SM represents sphingomyelin; TMS represents N,N,N-trimethylsphingosine; SPN represents sphingosine; SPN-1-P represents sphingosine-1-phosphate; and ORG represents the origin.
In addition, the uptake and metabolic conversion of SPN vs. TMS was investigated. […] Rapid conversion of SPN into sphingosine-1-phosphate is clearly indicated by the appearance of bands corresponding to SPN-1-P prior to conversion into Cer. The SPN-1-P peak appeared after 10 minutes incubation, whereas the Cer peak appeared after 1 hour incubation.

[4] = 3H-SPN, in the presence of D-PDMP

Row | Compound | Area cleared by tumor cells (B16/F1 cells [1]) | viability at 1 h, 50 µM [2] [%] | Toxicity (B16/F1 melanoma cells) | Appearance of Cer peak after incubation with SPN (B16/F1 cells [3]; [4]) [h] | Appearance of SPN-1-P peak after incubation with SPN (B16/F1 cells [3]; [4]) [min] | Incorporation into B16/F1 cells (B16/F1 cells [3]) | Metabolic conversion (B16/F1 cells [3]) | Cytotoxicity, comparison (B16/F1 melanoma cells; concentration not given)
1 | CCCCCCCCCCCCC/C=C/[C@@H](O)[C@@H](N)CO [SPN, sphingosine] | reduced the area cleared by tumor cells | 21 | very toxic | 1 | 10 | rapidly incorporated | rapidly converted into SPN-1-P and ceramide; also recorded: can be converted to SPN-1-P | –
2 | CCCCCCCCCCCCC/C=C/[C@@H](O)[C@@H](N)COP(=O)(O)O [SPN-1-P, sphingosine-1-phosphate] | greatly reduced | 72 | weak toxicity | – | – | – | – | far less cytotoxic than SPN, DMS, or TMS
3 | CCCCCCCCCCCCC/C=C/[C@@H](O)[C@H](CO)[N+](C)(C)C [TMS, N,N,N-trimethylsphingosine] | – | – | – | – | – | rapidly incorporated | unchanged regardless of incubation time; also recorded: cannot be phosphorylated | –
